The results in this text go back to patent US20210268101A1 (priority 2020, published 2021).

Several values for one entry are separate records, joined by “and”; a condition that tells them apart may be missing. Equal values may be shown once. Read-outs that look alike come from different tables or passages of the source.

The assay deals with Balb/c mice. The conditions noted are these: serum 1:50.

Protocol: Serum was obtained on days 10, 19, 28 and 42. Antibodies were assayed at a 1:50 dilution on Neutravidin assay plates coated with Biotin-NP146 Biotin-NP350 or Biotin-Ova8 (controls).

On to “DGQEEKAGVVSTGLIGGGVILLNKHIDAYKTF [DerG-NP350]”, for which the “Responders/Group Total (n = 8)” value is, setting by setting: (cutoff OD 0.3 (A450), Day 10) 8 and 8/8; (cutoff OD 0.3 (A450), Day 19) 8/8; (cutoff OD 0.3 (A450), Day 28) 8/8; (cutoff OD 0.3 (A450), Day 42) 8/8; (cutoff OD 0.5 (A450), Day 10) 8 and 8/8; (cutoff OD 0.5 (A450), Day 19) 8/8. The “Responders/Group Total (n = 8)” value runs as follows: (cutoff OD 0.5 (A450), Day 28) 8/8; (cutoff OD 0.5 (A450), Day 42) 8/8; (cutoff OD 1.0 (A450), Day 10) 2/8; (cutoff OD 1.0 (A450), Day 28) 8/8; (cutoff OD 1.0 (A450), Day 42) 8/8; (cutoff OD 1.5 (A450), Day 10) 0/8. The “Responders/Group Total (n = 8)” value by setting is: (cutoff OD 1.5 (A450), Day 28) 8/8; (cutoff OD 1.5 (A450), Day 42) 8/8.

Regarding “DLLKNGERIEKVEGGGVILLNKHIDAYKTF [J-NP350]”, the “Responders/Group Total (n = 8)” value is recorded as 7/8 (cutoff OD 0.3 (A450), Day 19); 8/8 (cutoff OD 0.3 (A450), Day 28); 8/8 (cutoff OD 0.3 (A450), Day 42); 7/8 (cutoff OD 0.5 (A450), Day 19); 8/8 (cutoff OD 0.5 (A450), Day 28); 8/8 (cutoff OD 0.5 (A450), Day 42). Moreover, the “Responders/Group Total (n = 8)” value is, setting by setting: (cutoff OD 1.0 (A450), Day 10) 0/8; (cutoff OD 1.0 (A450), Day 19) 6 and 6/8; (cutoff OD 1.0 (A450), Day 28) 8/8; (cutoff OD 1.0 (A450), Day 42) 8/8; (cutoff OD 1.5 (A450), Day 10) 0/8; (cutoff OD 1.5 (A450), Day 19) 1/8. Further, the “Responders/Group Total (n = 8)” value (cutoff OD 1.5 (A450), Day 28) was 2/8; the “Responders/Group Total (n = 8)” value (cutoff OD 1.5 (A450), Day 42) is 6 and 6/8.
